± gives the expanded uncertainty stated by the source.
Assay: refractive index (Na D-line) (dimensionless)
Conditions: 293.15 K; 101.33 kPa; Liquid; Standard Abbe refractometry

refractive index: 1.3993 ± 0.0007
SMILES: CCCCO [butan-1-ol]
